Laboratory results reported in PMC7533260, “Design and tests of prospective property predictions for novel antimalarial 2-aminopropylaminoquinolones” (Journal of Computer-Aided Molecular Design, 2020).

What was measured:
s-PfDHODH = target: T1, s-PfDHODH (Plasmodium falciparum, UniProt Q08210); test: Inhibition of s-PfDHODH in vitro (Tres Cantos laboratory); conditions: read-out: s-PfDHODH in vitro IC50; assayed at the Tres Cantos laboratory
T1 sequence (Q08210 158-569 limits assumed): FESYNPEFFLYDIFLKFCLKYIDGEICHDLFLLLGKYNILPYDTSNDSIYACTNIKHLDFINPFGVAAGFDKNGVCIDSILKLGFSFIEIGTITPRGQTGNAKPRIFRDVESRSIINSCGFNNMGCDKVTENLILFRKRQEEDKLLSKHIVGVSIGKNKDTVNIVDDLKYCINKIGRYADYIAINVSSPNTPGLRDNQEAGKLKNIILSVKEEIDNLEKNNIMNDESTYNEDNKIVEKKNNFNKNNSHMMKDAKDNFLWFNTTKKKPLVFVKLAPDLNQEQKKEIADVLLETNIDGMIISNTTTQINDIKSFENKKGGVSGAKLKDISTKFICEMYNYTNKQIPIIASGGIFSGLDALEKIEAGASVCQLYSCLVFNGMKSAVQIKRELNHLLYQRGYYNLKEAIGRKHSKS
From the text: The literature data set used to build our PfDHODH inhibition models was based on in vitro assays carried out using the truncated, soluble form of the enzyme introduced by Baldwin et al. [10].

[1] = system: P. falciparum 3D7 (chloroquine-susceptible); test: XC50 in asynchronous blood culture, [3H]hypoxanthine incorporation, strain 3D7; type: cell-based; conditions: Plasmodium falciparum, concentration required to reduce parasite growth rate by 50%
Protocol: (§1) Antimalarial activity in blood culture was determined as previously described at the University of California, Riverside, under conditions essentially identical to those used by GSK [19].
(§2) P. falciparum 3D7A and Dd2 strains used in this study were obtained from the Malaria Research and Reference Reagent Resource Center (MR4). Parasites were grown in human erythrocytes (obtained from a transfusion blood bank in Madrid, Spain) with Albumax II medium as previously described. RPMI 1640 medium (Gibco) was supplemented with 0.5% Albumax II (Invitrogen), 2% D-sucrose (Sigma-Aldrich), 0.3% glutamine (Sigma-Aldrich), and 150 µM hypoxanthine (Sigma-Aldrich). Cultures were maintained at 37°C at an atmosphere of 5% O2, 5% CO2, and 90% N2.
(§3) Parasite growth inhibition assays and 50% inhibitory concentration (XC50) determinations were carried out by following standard methods using the [^3H]hypoxanthine incorporation assay. Briefly, cultures with 0.5% parasitemia and 2% hematocrit were incubated with the drug as described for 48 h. After this period, parasites were harvested and the amount of incorporated radiolabeled precursor was determined. Radioactivity was added 24 h before harvesting of the parasites.

[2] = system: P. falciparum Dd2 (chloroquine-resistant); test: XC50 in asynchronous blood culture, [3H]hypoxanthine incorporation, strain Dd2; type: cell-based, Plasmodium falciparum; conditions: for IC50: Plasmodium falciparum, DD2, concentration required to reduce parasite growth rate by 50%, chloroquine-resistant strain, asynchronous blood culture; for Resistance ratio (±): ratio of XC50 between resistant (Dd2) and susceptible (3d7) strains
Protocol: as §1, §2, §3

intact PfDHODH = test: Rescue from growth inhibition by transfection with ScDHODH (Dd2attB_yeastDHODH vs parental Dd2attB); type: cell-based, Plasmodium falciparum; conditions: P. falciparum in blood culture; Tres Cantos, previously unpublished
From the text: Fortunately, there is a way to address this question, though the method is somewhat indirect. P. falciparum parasites engineered to express DHODH from the yeast Saccharamyces cerevisiae (ScDHODH) use fumarate as an oxidizing agent instead of ubiquinone, so their growth is not inhibited by (i.e., they are “rescued from”) inhibitors that compete with ubiquinone. Painter et al. used this technique to validate PfDHODH as an antimalarial drug target.
Unbeknownst to the Simulations Plus and U.C. Riverside groups, the Tres Cantos group had already tested several 2-aminoquinolone actives from the GSK antimalarial data set for rescue by ScDHODH transfection. […] An additional sixteen 2-amino-4-quinolones having different bridging groups were also assayed; three of these were clearly subject to rescue, whereas three yielded ambiguous results.
The Dd2 cell line containing yeast dihydroorotate dehydrogenase (DHODH) and its parental strain were cultured as described in 4.3.1 and potency of compounds determined following procedures outlined in 4.3.2. The ScURA1 gene from Saccharomyces cerevisiae was amplified from genomic DNA and cloned into the pLN-14 vector. The P. falciparum Dd2attB strain was transfected by electroporation, and stable transfectants were selected with blasticidin. Both the Dd2attB_yeastDHODH strain and its parental strain, Dd2attB, were used in these assays to determine if parasite growth inhibition was mediated by inhibition of PfDHODH following rationale previously described in Painter et al..

[3] = target: truncated enzyme (PfDHODH); parameters: method as in PMID 16510978; conditions: assayed under similar conditions; cited from earlier work
[4] = target: full-length enzyme from P. falciparum (PfDHODH); parameters: method as in PMID 7909690; conditions: after solubilization in Triton X-100; cited from earlier work
s-RrDHODH = target: s-RrDHODH; parameters: method as in PMID 16510978; conditions: read-out: Ki, s-RrDHODH from rat; cited from earlier work
human enzyme (DHODH) = target: human enzyme (DHODH); parameters: method as in PMID 16510978; conditions: cited from earlier work

Compound | IC50 [1] [µM] | IC50 [2] [µM] | Resistance ratio (±) [2] | rescue of parasites from growth inhibition by ScDHODH transfection (intact PfDHODH) | also measured
O=C(O)C(O)C(=O)O [CID 44,537,350] | – | – | – | – | IC50 (s-PfDHODH): 0.86 µM
Cn1cc(CNCC2(CNc3cc(=O)c4ccccc4[nH]3)CCCC2)n(C)c1=O [Compound 12a, 2-(1-((1,3-dimethyl-2-oxo-imidazol-4-yl)methylaminomethyl)cyclopentyl)methylamino-1H-quinolin-4-one] | 10 | 46 | 4.6 | – | –
O=c1cc(NCCCNCc2sc(Br)nc2Br)[nH]c2ccccc12 [CID 44534653] | – | – | – | rescued | –
O=c1cc(NCC2(CNCc3cn(Cc4ccccc4)c4ccccc34)CCCCC2)[nH]c2ccccc12 [CID 10300864] | – | – | – | rescued | –
Cn1cc(CNCC2(CNc3cc(=O)c4cc(Cl)ccc4[nH]3)CCCC2)n(C)c1=O [Compound 12b, 6-chloro-2-(1-((1,3-dimethyl-2-oxo-imidazol-4-yl)methylaminomethyl)cyclopentyl)methylamino-1H-quinolin-4-one] | 1.61 | 6.4 | 3.9 | – | –
CCOc1c(CNCCCNc2cc(=O)c3ccccc3[nH]2)cc(Br)cc1OC [CID 44373601] | – | – | – | not rescued | –
COc1ccc2[nH]c(NCC3(CNC4CCNc5ccccc54)CCCC3)cc(=O)c2c1 (stereo not drawn) [Compound 11c, 6-methoxy-2-(1-((1,2,3,4-tetrahydroquinolin-4-yl)aminomethyl)cyclopentyl)methylamino-1H-quinolin-4-one] | 0.37 | 1.78 | 4.8 | – | –
O=C1C(O)=C([C@H]2CC[C@H](c3ccc(Cl)cc3)CC2)C(=O)c2ccccc21 [Atovaquone] | – | – | – | – | Ki [3]: > 500 µM; Ki [4]: 27 µM; Ki (s-RrDHODH): ~0.08 µM; Ki (human enzyme (DHODH)): ~2 µM
O=c1cc(NC[C@H]2CCC[C@@H]2NC2CCCc3c2[nH]c2ccccc32)[nH]c2ccccc12 (stereo partly drawn) [CID 44533954] | – | – | – | not rescued | –
